Data published in article PMC12631437, “Evaluation of the Activity of 4‑Quinolones against Multi-Life Stages of Plasmodium spp” (ACS Omega, 2025).
Like-named read-outs stand apart in the source and are kept apart here.

Columns and labels:
[1] = system: late-stage gametocytes (IV and V) of P. falciparum NF54; assay: Late-stage gametocyte bioluminescence assay, luciferase-expressing NF54; type: cell-based, Plasmodium falciparum; conditions: for Pf gametocytes inhibition: 1 μM; for inhibition at 20 µM: Plasmodium falciparum, NF54, 48 h, read-out: Pf gametocytes Inhibition (%)
Protocol: For the in vitro culture of sexual stages of P. falciparum NF54 Luminescent strain, the Tripathi protocol was followed.
Parasite asexual stages were synchronized, and ring-stage parasites were incubated with a parasite-conditioned medium to induce stress and trigger gametocyte induction. After sexually committed parasites invaded new erythrocytes, N-acetylglucosamine was added to prevent further invasion and clear residual asexual parasites.
When a predominance of late stage (IV and V) gametocytes was identified and counted together, , the MACS magnetic system was used for gametocyte enrichment, as previously described. ,
The column content was eluted with RPMI medium into a 15 mL Falcon tube until translucent medium appeared, yielding ∼ 10 mL of eluate. The sample was centrifuged at 1500 rpm for 5 min at 37 °C, the supernatant discarded, and the pellet washed with preheated RPMI medium containing albumax. A 1 μL pellet sample was used to prepare a Giemsa-stained smear for gametocytaemia determination by counting 2000 cells. The gametocytemia for each assay were 71%, 64% and 31%. The remaining pellet was adjusted to 1 mL with RPMI medium containing 10% human serum at 37 °C. Total cell counts were performed using a Neubauer chamber with a 10X diluted sample.
Each well contained 200,000 gametocytes in 150 μL without erythrocytes. After 48 h of incubation, a luciferase kit (Promega) was used to reveal the assay. Eighty microliters of supernatant were discarded, and the pellet was homogenized in the remaining content. Forty microliters of the sample were transferred to a clear 96-well plate containing lysis solution (1X), gently mixed, and moved to a white-bottomed 96-well plate. Luciferase (40 μL) was added, and luminescence was measured using a microplate reader with a 10-s integration time.

[2] = system: P. vivax oocysts and sporozoites in Anopheles darlingi; assay: Direct membrane feeding assay (DMFA), P. vivax gametocytes, A. darlingi mosquitoes; type: in vivo, Plasmodium vivax; conditions: for reduction of the density of sporozoites per mosquito: 14 days after feeding; for reduction in the oocyst density per mosquito midgut: day 7
Protocol: Participants were recruited from patients diagnosed with P. vivax malaria via Giemsa-stained blood smears at CEPEM in Porto Velho, Rondônia, Brazil (#28176720.9.0000.0011). Criteria included: P. vivax parasitemia >2000 parasites/μL, age 18–85, no severe malaria, no concomitant diseases, nonpregnant, and consent to study procedures. Approximately 10 mL of venous blood was collected into heparin-coated vials, maintained at 37 °C, and transported to PIVEM for DMFA. Malaria treatment followed Brazilian Ministry of Health guidelines and was unaffected by study participation.
Anopheles darlingi mosquitoes are maintained in the PIVEM insectary at Fiocruz Rondônia since 2018. Mosquitoes were raised at a temperature of 26 °C ± 1 °C and a relative humidity of 70 ± 10%, being fed a 15% honey solution.
Before the DMFA, female mosquitoes were starved of sucrose overnight. Six P. vivax isolates were used, and 40–100 mosquitoes per group were fed P. vivax-infected blood for 30 min using a Hemotek membrane feeder at 37 °C. Unfed mosquitoes were removed, and engorged ones were maintained for sporogony, receiving a 15% honey solution refreshed every 2 days. Midguts were dissected on day 7 and salivary glands on day 14 postblood feeding, to assess midgut oocyst load and salivary gland sporozoite load, respectively.
Mosquitoes were anesthetized on ice, immersed in 70% ethanol, and dissected in PBS. Midguts were stained with 0.2% mercurochrome and examined microscopically for oocysts. Salivary glands were pooled (5 mosquitoes per sample), and homogenized in 15 μL RPMI, and sporozoites were counted using a Neubauer chamber.

[3] = system: P. falciparum HB3 strain; assay: SYBR Green growth assay, asexual blood stages, HB3 strain; type: cell-based, Plasmodium falciparum; conditions: for IC50: Plasmodium falciparum
Protocol: Parasite strains SB1-A6, 7G8, V1/S, and HB3 were acquired from BEI-MR4, while the ATQ R1 strain, carrying a V259L gene mutation, was generated in-house. […] Parasitemia was monitored using Giemsa-stained blood smears.
(§1) Bioassays were conducted with synchronized ring-stage parasites using sorbitol synchronization. Antimalarial compounds were evaluated in 96-well plates, and parasite growth was assessed using a SYBR Green-based fluorescence assay The assays were conducted when the parasite quantity reached at least 70% of the ring stage. Compounds were initially added at specific concentrations in the first wells, followed by serial dilution (1:2) ranging from 20 μM to 0.009 μM. Subsequently, a solution containing parasites in RPMI medium at a hematocrit of 2% was added to each well, and the parasites were then incubated for 72 h.
The IC50 values were determined using concentration–response curves generated in GraphPad 8 software. Additionally, the resistance index was calculated by comparing IC50 values obtained for the sensitive 3D7 strain with those of the resistant strains.

[4] = system: P. falciparum 7G8 strain; assay: SYBR Green growth assay, asexual blood stages, 7G8 strain; type: cell-based, Plasmodium falciparum; conditions: for IC50: Plasmodium falciparum
Protocol: (§2) Healthy blood samples for parasite culture were obtained from voluntary donors (approved under protocol #28176720.9.0000.0011), processed to remove white blood cells, and stored at 2 °C–8 °C for up to 15 days. Parasite strains SB1-A6, 7G8, V1/S, and HB3 were acquired from BEI-MR4, while the ATQ R1 strain, carrying a V259L gene mutation, was generated in-house. Infected erythrocytes were cultured in RPMI 1640 medium supplemented with Hepes, sodium bicarbonate, glucose, Albumax, and gentamicin, […], and incubated in a 5% CO2, 5% O2, and 90% N2 gas mixture at 37 °C with daily medium changes. Parasitemia was monitored using Giemsa-stained blood smears.
as §1
(§3) To assess parasite growth, the culture medium was replaced with a lysis solution (Trisbase: 49.31%, EDTA: 30.00%, Saponin: 0.16%, Triton: 0.02%) containing the fluorescent dye SYBR Green (Sigma). After a 30 min incubation, fluorescence readings were taken to determine the 50% inhibitory concentration (IC50) of parasite growth. The IC50 values were determined using concentration–response curves generated in GraphPad 8 software. Additionally, the resistance index was calculated by comparing IC50 values obtained for the sensitive 3D7 strain with those of the resistant strains.

[5] = system: P. falciparum SB1-A6 strain; assay: SYBR Green growth assay, asexual blood stages, SB1-A6 strain; type: cell-based, Plasmodium falciparum
Protocol: as §2, §1, §3

[6] = system: P. falciparum DHODH strain; assay: SYBR Green growth assay, asexual blood stages, DHODH resistant mutant; type: cell-based, Plasmodium falciparum
Protocol: as §2, §1, §3

[7] = 20 μM, 48 h, late-stage (IV and V) gametocytes

Row | Structure (SMILES) | Pf gametocytes inhibition [1] | Pf gametocytes Inhibition (%) [1, 7] | inhibition at 20 µM [1, 7] | reduction of the density of sporozoites per mosquito ([2]; 2 μM) | reduction in the oocyst density per mosquito midgut ([2]; 2 μM) | reduction of the density of sporozoites per mosquito ([2]; 10 μM) | reduction in the oocyst density per mosquito midgut ([2]; 10 μM) | IC50 ([3]; HB3, strain assigned by order of panels, read-out: IC50 (Figure S1)) | IC50 ([3]; HB3 strain, 72 h, read-out: IC50) | RI (resistance index) ([3]; ratio of IC50 HB3 to 3D7) | IC50 ([4]; 7G8, strain assigned by order of panels, read-out: IC50 (Figure S1)) | IC50 ([4]; 7G8 strain, 72 h, read-out: IC50) | RI (resistance index) ([4]; ratio of IC50 7G8 to 3D7) | IC50 ([5]; Plasmodium falciparum, 72 h) | RI (resistance index) ([5]; ratio of IC50 SB1-A6 to 3D7) | IC50 ([6]; Plasmodium falciparum, 72 h) | RI (resistance index) ([6]; ratio of IC50 DHODH to 3D7) | reduction of infection prevalence ([2]; 2 μM) | reduction of infection prevalence ([2]; 10 μM)
1 | CCCCCCOc1ccc(-c2cc(=O)c3ccccc3[nH]2)cc1 [compound 6, 2-(4-(Hexyloxy)-phenyl)-quinolin-4(1H)-one] | no activity | 68 ± 25% | 64% | 31% | 29% | 10% | 53% |  |  |  |  |  |  |  |  |  |  |  | 
2 | CCCCCCCCCCCc1cc(=O)c2ccccc2[nH]1 [compound 1, 2-Undecilquinolin-4(1H)-one] | no activity |  | 44 ± 4% | 39% | 74% |  | 95% | 260 nM | 430 ± 50 nM | 2.1 | 200 nM | 270 ± 10 nM | 1.3 | 7000 ± 1000 nM | 35 | 60 ± 10 nM | 0.3 | 31% | 71%
